# Results: paper PMC12423301, “Astrocytic monoamine oxidase B (MAOB)–gamma-aminobutyric acid (GABA) axis as a molecular brake on repair following spinal cord injury” (Signal Transduction and Targeted Therapy, 2025)
# Assays:
# in vivo = assay: in vivo; parameters: species or system SD Rat; details: rat
# Experimental: Next, we tested whether pharmacological inhibition of MAOB facilitates recovery after SCI. […] The pharmacokinetic (PK) analysis of KDS2010 was performed in mice, rats, and nonhuman primates. […] We substituted the mouse SCI model with a rat SCI model, which has been reported to be better for pharmacological evaluation and closer to human SCI.[21] We performed Basso, Beattie and Bresnahan (BBB) locomotor test[22] to assess the functional recovery once a week for a total of 11 weeks (Fig. 2a). […] In addition to the BBB locomotor test, we performed the ladder rung test by measuring the percentage of hindlimb steps without slipping as rats walked along a horizontal ladder[23] (Fig. 2d, e). […] We then assessed the tissue recovery using EC staining on cross and longitudinal sections of the spinal cord. […]
# In a pharmacokinetic study, plasma PK parameters were measured after a single oral administration of […]
# dose group and at 4 to 6 hours after administration in the 30 mg/kg dose group. In the elimination phase, the […]
# Systemic exposure (AUClast) to the test substance was 30587 and 80770 ng*hr/mL, respectively.
# At this time, AUC0-inf was […]
# time, AUC0-inf was 192000 ng eq.h/mL. […]
# [1] = Phase 1 clinical trial: treatment-emergent adverse events; assay type: in vivo, human
# Experimental: Eligibility criteria included healthy adults (aged 19–45) for the SAD and MAD cohorts, and healthy elderly subjects (aged 65–85) for cohort 11. The participants were excluded if they met the following criteria: serum AST or ALT greater than 60 IU/L, total bilirubin greater than 1.8 mg/dL, creatinine phosphokinase (CPK) levels greater than 405 IU/L, creatinine clearance calculated by the Chronic Kidney Disease Epidemiology Collaboration (CKD-EPI) equation less than 60 mL/min/1.73 m². At the time of randomization, all subjects were required to be free from any clinically significant medical conditions. The study was approved by the Seoul National University Hospital institutional review board and conducted in accordance with the Declaration of Helsinki and Good Clinical Practice guidelines.
# Subjects who met the eligibility criteria were admitted to the Seoul National University Hospital Clinical Trial Center one day prior to the first dose administration. […] After administration of the last dose, subjects were discharged 72 h later and visited the outpatient clinic for follow-up on three consecutive days. Pharmacokinetics and safety were monitored until the end of the study, lasting up to 18 days after the last dose.
# The primary endpoint was the incidence of TEAEs by dose group. […] Those deemed to have a causal relationship with the drug were classified as ADRs. Dose escalation proceeded under blinded conditions, contingent on the absence of dose-limiting toxicity, as reviewed by a safety review committee.
# [2] = parameters: method as in PMID 30906861; details: cited from earlier work
# [3] = MAD, healthy elderly, Cohort 11, 120 mg, n = 6
# [4] = MAD, young healthy adults, Cohort 7, 60 mg, n = 6
# [5] = MAD, young healthy adults, Cohort 8, 120 mg, n = 6
# [6] = MAD, young healthy adults, Cohort 9, 240 mg, n = 6
# [7] = MAD, young healthy adults, Cohort 10, 480 mg, n = 6
# [8] = SAD, young healthy adults, Cohort 1, 30 mg, n = 6
# [9] = SAD, young healthy adults, Cohort 2, 60 mg, n = 6
# [10] = SAD, young healthy adults, Cohort 3, 120 mg, fasting, n = 6
# [11] = SAD, young healthy adults, Cohort 3, 120 mg, fed, n = 5
# [12] = SAD, young healthy adults, Cohort 4, 240 mg, n = 6
# [13] = SAD, young healthy adults, Cohort 5, 480 mg, n = 6
# [14] = SAD, young healthy adults, Cohort 6, 960 mg, n = 6
smiles,measurement,setting,value
"CS(=O)(=O)O.C[C@H](NCc1ccc(-c2ccc(C(F)(F)F)cc2)cc1)C(N)=O [KDS2010, (S)-2-(((4’-Trifluoromethylbiphenyl-4-yl)methyl)amino)propanamide methane-sulfonate]",AUC(0-inf),"in vivo; SD, iv, 1 mg/kg",164 ± 13.1 ng·h/mL
same,Vd/F,"in vivo; SD, iv, 1 mg/kg",18.377 ± 2.743 L/kg
same,half-life,"in vivo; SD, iv, 1 mg/kg",2.1 ± 0.3 h
same,AUC(0-inf),"in vivo; SD, po, 9 mg/kg",9120 ± 4130 ng·h/mL
same,Vd/F,"in vivo; SD, po, 9 mg/kg",19.7 ± 4.34 L/kg
same,half-life,"in vivo; SD, po, 9 mg/kg",14.6 ± 8.7 h
same,AUC(0-t),in vivo; Sprague-Dawley,~3000 ng·h/mL
same,AUC,"in vivo; Sprague-Dawley, po, 9 mg/kg",3000 ng·h/mL
same,CL/F,"in vivo; Sprague-Dawley, po, 9 mg/kg",19 mL/min/kg
same,Cmax,"in vivo; Sprague-Dawley, po, 9 mg/kg",508 ng/mL
same,half-life,"in vivo; Sprague-Dawley, po, 9 mg/kg",10.8 h
same,effect of a high-fat meal on the frequency of TEAEs,[1]; 120 mg,did not affect
same,TEAE: Abdominal discomfort,[1]; [3],2 (33.3) number of subjects (%)
same,TEAE: Constipation,[1]; [3],2 (33.3) number of subjects (%)
same,TEAE: Diarrhea,[1]; [3],2 (33.3) number of subjects (%)
same,TEAE: Dizziness,[1]; [3],1 (16.7) number of subjects (%)
same,TEAE: Hematocrit decreased,[1]; [3],2 (33.3) number of subjects (%)
same,TEAE: Red blood cell count decreased,[1]; [3],1 (16.7) number of subjects (%)
same,TEAEs: Any,[1]; [3],5 (83.3) number of subjects (%)
same,TEAEs: Serious,[1]; [3],0 number of subjects (%)
same,TEAE: Cough,[1]; [4],1 (16.7) number of subjects (%)
same,TEAE: Rhinorrhoea,[1]; [4],1 (16.7) number of subjects (%)
same,TEAEs: Any,[1]; [4],2 (33.3) number of subjects (%)
same,TEAEs: Serious,[1]; [4],0 number of subjects (%)
same,TEAEs: Any,[1]; [5],0 number of subjects (%)
same,TEAEs: Serious,[1]; [5],0 number of subjects (%)
same,TEAE: Hypersomnia,[1]; [6],1 (16.7) number of subjects (%)
same,TEAEs: Any,[1]; [6],1 (16.7) number of subjects (%)
same,TEAEs: Serious,[1]; [6],0 number of subjects (%)
same,TEAE: Conjunctival hyperemia,[1]; [7],1 (16.7) number of subjects (%)
same,TEAE: Oropharyngeal pain,[1]; [7],1 (16.7) number of subjects (%)
same,TEAEs: Any,[1]; [7],2 (33.3) number of subjects (%)
same,TEAEs: Serious,[1]; [7],0 number of subjects (%)
same,TEAEs: Any,[1]; [8],2 (33.3) number of subjects (%)
same,TEAEs: Serious,[1]; [8],0 number of subjects (%)
same,TEAE: Cough,[1]; [9],1 (16.7) number of subjects (%)
same,TEAE: Oropharyngeal pain,[1]; [9],1 (16.7) number of subjects (%)
same,TEAEs: Any,[1]; [9],1 (16.7) number of subjects (%)
same,TEAEs: Serious,[1]; [9],0 number of subjects (%)
same,TEAE: Neutrophil count increased,[1]; [10],1 (16.7) number of subjects (%)
same,TEAEs: Any,[1]; [10],3 (50.0) number of subjects (%)
same,TEAEs: Serious,[1]; [10],0 number of subjects (%)
same,TEAE: Neutrophil count increased,[1]; [11],2 (40.0) number of subjects (%)
same,TEAEs: Any,[1]; [11],3 (60.0) number of subjects (%)
same,TEAEs: Serious,[1]; [11],0 number of subjects (%)
same,TEAE: Dry eye,[1]; [12],1 (16.7) number of subjects (%)
same,TEAE: Neutrophil count increased,[1]; [12],1 (16.7) number of subjects (%)
same,TEAE: Ocular discomfort,[1]; [12],1 (16.7) number of subjects (%)
same,TEAE: Swelling of the eyelid,[1]; [12],1 (16.7) number of subjects (%)
same,TEAE: White blood cell count increased,[1]; [12],1 (16.7) number of subjects (%)
same,TEAEs: Any,[1]; [12],2 (33.3) number of subjects (%)
same,TEAEs: Serious,[1]; [12],0 number of subjects (%)
same,TEAE: Nasal congestion,[1]; [13],1 (16.7) number of subjects (%)
same,TEAE: Rhinorrhoea,[1]; [13],1 (16.7) number of subjects (%)
same,TEAEs: Any,[1]; [13],2 (33.3) number of subjects (%)
same,TEAEs: Serious,[1]; [13],0 number of subjects (%)
same,TEAE: Conjunctival hyperemia,[1]; [14],1 (16.7) number of subjects (%)
same,TEAE: Dizziness,[1]; [14],1 (16.7) number of subjects (%)
same,TEAE: Dry eye,[1]; [14],1 (16.7) number of subjects (%)
same,TEAE: Nasal congestion,[1]; [14],2 (33.3) number of subjects (%)
same,TEAE: Rhinorrhoea,[1]; [14],1 (16.7) number of subjects (%)
same,TEAE: Somnolence,[1]; [14],2 (33.3) number of subjects (%)
same,TEAEs: Any,[1]; [14],4 (66.7) number of subjects (%)
same,TEAEs: Serious,[1]; [14],0 number of subjects (%)
same,number of TEAEs,[1]; all subjects on KDS2010,56 TEAEs
same,number of subjects with TEAEs,[1]; all subjects on KDS2010,25 subjects
same,proportion of subjects with TEAEs,[1]; all subjects on KDS2010,37.9%
same,autonomic nervous system TEAEs,[1]; higher doses (240–960 mg),TEAEs related to the autonomic nervous system were observed
same,incidence of TEAEs vs dose,[1]; phase 1,tended to increase with dose
same,serious adverse events,"[1]; phase 1, all cohorts",no serious adverse events
same,permeability across the blood‒brain barrier,[2],highly permeable
